Here are results for 2 compounds from patent publication US6500827B2, “Drug combinations” (Pharmacia & Upjohn Company, priority 1998, dated 2002).

The nature of one series: tolerability and safety. Conditions: in vivo.
A further series deals with dopamine uptake. The text has this:
(§1) Leonard-BE, “Noradrenaline in basic models of depression.” European-Neuropsychopharnacol. April 1997; 7 Suppl 1: S11-6; discussion S71-3.

In another series the test system is serotonin uptake.
Text: as §1

The next series deals with norepinephrine uptake. The settings on record: compared with classical tricyclic antidepressants.
Text: as §1

The subject of a further series is monoamine oxidase (MAO).
Text: as §1

Series [1] has as its system muscarinic cholinergic receptors. Description: interaction with muscarinic cholinergic receptors. In kind it is binding.
Series [2] relates to patients with a DSM-III-R diagnosis of Obsessive Compulsive Disorder. Description: trial in patients with Obsessive Compulsive Disorder. It is filed as in vivo, human. The settings on record: of 10 OCD patients, 6 mg first week then 8 mg, 3 to 4 weeks. From the text:
This study is provided to illustrate the usefulness of using reboxetine as a treatment for OCD and the invention described herein should not be considered limited by this example.

A further series relates to I-adrenerigic receptors. In words: interaction with I-adrenerigic receptors. In kind it is binding.
A further series has as its system 8-OH-DPAT hypothermia. The settings on record: in vivo; cited from earlier work.

Experimental for tolerability and safety: It is more commonly provided in dosages of from 1 to 20 mg per patient per day. […] Other adverse reactions are possible. […] Both compounds may be administered by any suitable method including a convenient oral dosage form. A preferred method is oral dosing twice a day.

Regarding `CC(C)NCC(O)COc1cccc2[nH]ccc12` (stereo not drawn) [Pindolol, 1-(1H-Indol-4-yloxy)-3-[(1-methylethyl)amino]-2-propanol], the tolerability / safety entry in “tolerability and safety” is reported as “fairly safe”.
For the compound `CCOc1ccccc1OC(c1ccccc1)C1CNCCO1` (stereo not drawn) [reboxetine], the “dopamine uptake inhibitory activity” value with dopamine uptake is given as “no dopamine uptake inhibitory activity”. In the series on serotonin uptake, the “serotonin uptake inhibitory activity” value was “only marginal”. In addition, in the series on norepinephrine uptake, the “inhibition of the reuptake of noradrenaline” value is reported as “inhibitory properties of classical tricyclic antidepressants”. The “monoamine oxidase (MAO) inhibitory activity” value in the series with monoamine oxidase (MAO) was “devoid”. In addition, the “interaction with muscarinic cholinergic receptors” value in [1] is reported as “without showing any appreciable interaction”. Besides, in [2], the “patients judged minimally improved at CGI last assessment” value stood at 2, the “patients judged much improved at CGI last assessment” value came out at 4, the “patients judged very much improved at CGI last assessment” value was “one” and the “patients unchanged at CGI last assessment” value was determined as 3. Besides, in the series on I-adrenerigic receptors, the “interaction with I-adrenerigic receptors” value is “without showing any appreciable interaction”. Further, the “effect in the 8-OH-DPAT hypothermia test” value with 8-OH-DPAT hypothermia is “ineffective”.
